# Assay results published in patent publication US10975093B2, “Fused 1,4-diazepines as BET protein degraders” (THE REGENTS OF THE UNIVERSITY OF MICHIGAN, priority 2016, dated 2021).
# Tests used:
# [1] = tested on: MOLM-13; experiment: Cell growth inhibition, CellTiter-Glo Luminescent Cell Viability Assay, MOLM-13; assay type: cell-based; conditions: Homo sapiens, MOLM-13 cells, 4 days incubation
# Protocol: (§1) Cell growth inhibitory activity of representative Compounds of the Disclosure was determined in various cell lines using CellTiter-Glo® Luminescent Cell Viability Assay. Cells were seeded in 384-well white opaque cell culture plates at a density of 2,000 cells/well with serially diluted compounds and incubated at 37° C. in an atmosphere of 95% air and 5% CO2 for 4 days. Cell viability was determined using the CellTiter-Glo® Luminescent Cell Viability Assay Kit (Promega, Madison, Wis.) according to the manufacture's instruction. Briefly, a volume of CellTiter-Glo® Reagent equal to the volume of cell culture medium was added to each well, and then the plates were incubated at room temperature for 10-20 minutes. The luminescent signal was measured using a Tecan Infinite M1000 multimode microplate reader (Tecan, Morrisville, N.C.). The half maximal inhibitory concentration (IC50) was calculated using the GraphPad Prism 5 software (GraphPad Software, La Jolla, Calif.).
# [2] = tested on: MDA-MB-231; experiment: Cell growth inhibition, CellTiter-Glo Luminescent Cell Viability Assay, MDA-MB-231; assay type: cell-based; conditions: Homo sapiens, MDA-MB-231 cells, 4 days incubation
# Protocol: as §1
Structure (SMILES),"IC50 ([1]; MOLM-13, 96 h)","IC50 ([2]; MDA-MB-231, 96 h)",IC50 ([1]; 96 h),IC50 ([2]; 96 h)
"Cc1c(C#Cc2cnn(CCN3CCN(c4cccc5c4C(=O)N(C4CCC(=O)NC4=O)C5=O)CC3)c2)sc2c1C(c1ccc(Cl)cc1)=N[C@@H](C)c1nnc(C)n1-2 (stereo partly drawn) [compound 183, 4-(4-(2-(4-(((S)-4-(4-chlorophenyl)-3,6,9-trimethyl-6H-thieno[3,2-f][1,2,4]triazolo[4,3-a][1,4]diazepin-2-yl)ethynyl)-1H-pyrazol-1-yl)ethyl)piperazin-1-yl)-2-(2,6-dioxopiperidin-3-yl)isoindoline-1,3-dione]",0.8 nM,0.3 nM,,
"Cc1c(C#Cc2cnn(CCCN3CCC(Nc4cccc5c4CN(C4CCC(=O)NC4=O)C5=O)CC3)c2)sc2c1C(c1ccc(Cl)cc1)=N[C@@H](CC(N)=O)c1nnc(C)n1-2 (stereo partly drawn) [compound 190, 2-((6S)-4-(4-chlorophenyl)-2-((1-(3-(4-((2-(2,6-dioxopiperidin-3-yl)-1-oxoisoindolin-4-yl)amino)piperidin-1-yl)propyl)-1H-pyrazol-4-yl)ethynyl)-3,9-dimethyl-6H-thieno[3,2-f][1,2,4]triazolo[4,3-a][1,4]diazepin-6-yl)acetamide]",0.05 nM,0.1 nM,,
"Cc1c(C#Cc2cnn(CCCCOc3cccc4c3CN(C3CCC(=O)NC3=O)C4=O)c2)sc2c1C(c1ccc(Cl)cc1)=NCc1nnc(C)n1-2 (centres unmarked) [compound 146, 3-(4-(4-(4-((4-(4-chlorophenyl)-3,9-dimethyl-6H-thieno[3,2-f][1,2,4]triazolo[4,3-a][1,4]diazepin-2-yl)ethynyl)-1H-pyrazol-1-yl)butoxy)-1-oxoisoindolin-2-yl)piperidine-2,6-dione]",1 nM,1.2 nM,,
"Cc1c(C#Cc2cnn(CCOCCOCCOCC#Cc3cccc4c3CN(C3CCC(=O)NC3=O)C4=O)c2)sc2c1C(c1ccc(Cl)cc1)=N[C@@H](CC(N)=O)c1nnc(C)n1-2 (stereo partly drawn) [compound 195, 2-((6S)-4-(4-chlorophenyl)-2-((1-(2-(2-(2-((3-(2-(2,6-dioxopiperidin-3-yl)-1-oxoisoindolin-4-yl)prop-2-yn-1-yl)oxy)ethoxy)ethoxy)ethyl)-1H-pyrazol-4-yl)ethynyl)-3,9-dimethyl-6H-thieno[3,2-f][1,2,4]triazolo[4,3-a][1,4]diazepin-6-yl)acetamide]",2.4 nM,5.4 nM,,
"Cc1c(C#Cc2ccc(CCCCNc3cccc4c3CN(C3CCC(=O)NC3=O)C4=O)nc2)sc2c1C(c1ccc(Cl)cc1)=NCc1nnc(C)n1-2 (centres unmarked) [Cpd. No. 17, 3-(4-((4-(5-((4-(4-chlorophenyl)-3,9-dimethyl-6H-thieno[3,2-f][1,2,4]triazolo[4,3-a][1,4]diazepin-2-yl)ethynyl)pyridin-2-yl)butyl)amino)-1-oxoisoindolin-2-yl)piperidine-2,6-dione]",10.3 nM,11.1 nM,,
"Cc1c(C#Cc2cnn(CCCC#Cc3cccc4c3C(=O)N(C3CCCNC3=O)C4=O)c2)sc2c1C(c1ccc(Cl)cc1)=NCc1nnc(C)n1-2 (centres unmarked) [compound 159, 4-(5-(4-((4-(4-chlorophenyl)-3,9-dimethyl-6H-thieno[3,2-f][1,2,4]triazolo[4,3-a][1,4]diazepin-2-yl)ethynyl)-1H-pyrazol-1-yl)pent-1-yn-1-yl)-2-(2-oxopiperidin-3-yl)isoindoline-1,3-dione]",> 100 nM,> 100 nM,,
"Cc1c(C#Cc2cnn(CCCCn3cnc(CNc4cccc5c4CN(C4CCC(=O)NC4=O)C5=O)c3)c2)sc2c1C(c1ccc(Cl)cc1)=NCc1nnc(C)n1-2 (centres unmarked) [compound 152, 3-(4-(((1-(4-(4-((4-(4-chlorophenyl)-3,9-dimethyl-6H-thieno[3,2-f][1,2,4]triazolo[4,3-a][1,4]diazepin-2-yl)ethynyl)-1H-pyrazol-1-yl)butyl)-1H-imidazol-4-yl)methyl)amino)-1-oxoisoindolin-2-yl)piperidine-2,6-dione]",8.7 nM,12.2 nM,,
"Cc1c(C#Cc2ccc(OCCC#Cc3cccc4c3CN(C3CCC(=O)NC3=O)C4=O)cn2)sc2c1C(c1ccc(Cl)cc1)=NCc1nnc(C)n1-2 (centres unmarked) [Cpd. No. 15, 3-(4-(4-((6-((4-(4-chlorophenyl)-3,9-dimethyl-6H-thieno[3,2-f][1,2,4]triazolo[4,3-a][1,4]diazepin-2-yl)ethynyl)pyridin-3-yl)oxy)but-1-yn-1-yl)-1-oxoisoindolin-2-yl)piperidine-2,6-dione]",,,82.6 nM,39.1 nM
"Cc1c(C#Cc2cnn(CCN3CC(CNc4cccc5c4CN(C4CCC(=O)NC4=O)C5=O)C3)c2)sc2c1C(c1ccc(Cl)cc1)=N[C@@H](C)c1nnc(C)n1-2 (stereo partly drawn) [compound 175, 3-(4-(((1-(2-(4-(((S)-4-(4-chlorophenyl)-3,6,9-trimethyl-6H-thieno[3,2-f][1,2,4]triazolo[4,3-a][1,4]diazepin-2-yl)ethynyl)-1H-pyrazol-1-yl)ethyl)azetidin-3-yl)methyl)amino)-1-oxoisoindolin-2-yl)piperidine-2,6-dione]",0.35 nM,1.5 nM,,
"Cc1ncsc1-c1ccc([C@H](C)NC(=O)[C@@H]2C[C@@H](O)CN2C(=O)[C@@H](NC(=O)COCCOCCOCCOCCn2cc(C#Cc3sc4c(c3C)C(c3ccc(Cl)cc3)=N[C@@H](C)c3nnc(C)n3-4)cn2)C(C)(C)C)cc1 [compound 198, (2S,4R)-1-((S)-2-(tert-butyl)-17-(4-(((S)-4-(4-chlorophenyl)-3,6,9-trimethyl-6H-thieno[3,2-f][1,2,4]triazolo[4,3-a][1,4]diazepin-2-yl)ethynyl)-1H-pyrazol-1-yl)-4-oxo-6,9,12,15-tetraoxa-3-azaheptadecanoyl)-4-hydroxy-N-((S)-1-(4-(4-methylthiazol-5-yl)phenyl)ethyl)pyrrolidine-2-carboxamide]",0.24 ± 0.06 nM,1.5 nM,,
"Cc1c(C#Cc2cnn(CCCN3CCN(c4cccc5c4C(=O)N(C4CCC(=O)NC4=O)C5=O)CC3)c2)sc2c1C(c1ccc(Cl)cc1)=N[C@@H](C)c1nnc(C)n1-2 (stereo partly drawn) [compound 178, 4-(4-(3-(4-(((S)-4-(4-chlorophenyl)-3,6,9-trimethyl-6H-thieno[3,2-f][1,2,4]triazolo[4,3-a][1,4]diazepin-2-yl)ethynyl)-1H-pyrazol-1-yl)propyl)piperazin-1-yl)-2-(2,6-dioxopiperidin-3-yl)isoindoline-1,3-dione]",1 nM,0.6 nM,,
"Cc1c(C#Cc2cnn(C[C@H]3C[C@H](Nc4cccc5c4CN(C4CCC(=O)NC4=O)C5=O)C3)c2)sc2c1C(c1ccc(Cl)cc1)=N[C@@H](C)c1nnc(C)n1-2 (stereo partly drawn) [compound 173, 3-(4-(((1S,3r)-3-((4-(((S)-4-(4-chlorophenyl)-3,6,9-trimethyl-6H-thieno[3,2-f][1,2,4]triazolo[4,3-a][1,4]diazepin-2-yl)ethynyl)-1H-pyrazol-1-yl)methyl)cyclobutyl)amino)-1-oxoisoindolin-2-yl)piperidine-2,6-dione]",3.3 nM,4.6 nM,,
"Cc1c(C#Cc2ccc(OCCC#Cc3cccc4c3CN(C3CCC(=O)NC3=O)C4=O)cn2)sc2c1C(c1ccc(Cl)cc1)=N[C@@H](C)c1nnc(C)n1-2 (stereo partly drawn) [Cpd. No. 16, 3-(4-(4-((6-(((S)-4-(4-chlorophenyl)-3,6,9-trimethyl-6H-thieno[3,2-f][1,2,4]triazolo[4,3-a][1,4]diazepin-2-yl)ethynyl)pyridin-3-yl)oxy)but-1-yn-1-yl)-1-oxoisoindolin-2-yl)piperidine-2,6-dione]",1.1 nM,1.7 nM,,
